Test results: paper doi:10.1101/2023.08.28.23294750v1 (medrxiv, 2023)
pIC50: −log10 of the molar value.

The compounds below were run against T1, SARS-CoV-2 3CL^pro (Severe acute respiratory syndrome coronavirus 2, UniProt P0DTD1) (assay: FRET assay, fluorogenic peptide cleavage). Details: read-out: % inhibition at 100 μmol/L.
Assay type: biochemical
`COc1c(O)cc(C(=O)O)cc1O` [M42M2, 4-O-methylgallic acid] gave an inhibition at 100 µM of less than 50%. `O=C1c2cccc(O)c2C(=O)c2c(O)cc(CO)cc21` [compound 11, aloe-emodin] was tested, and the inhibition at 100 µM was less than 50%. For `O=C(O)c1cc(O)c(O)c(O)c1` [compound 42, gallic acid], the inhibition at 100 µM was less than 50%. Compound `OCCc1ccc(O)c(O)c1` [hydroxytyrosol] has an inhibition at 100 µM of less than 50%. `COc1cc([C@H]2OC[C@H]3[C@@H]2CO[C@H]3c2ccc(OC)c(OC)c2)ccc1O` [phillygenin] gave an inhibition at 100 µM of less than 50%.

Each compound was assayed against T1, SARS-CoV-2 3CL^pro (assay: FRET assay, fluorogenic peptide cleavage). Details: not given.
Assay type: biochemical
`O=C(O)c1cc(O)c2c(c1)C(=O)c1cccc(O)c1C2=O` [compound 3, rhein] gave a pIC50 of 5.34. Compound `Cc1c(C(=O)O)c(O)cc2c1C(=O)c1c(O)cccc1C2=O` [compound 10, 3,8-dihydroxy-1-methylanthraquinone-2-carboxylic acid] has a pIC50 of 4.43.
